Assay results as given in PubChem BioAssay AID1963851 (Molecular Pharmacology Branch, DTP, NCI, 2024).

Test system: 188146-221-R-J1-PDC complex spheroid viability
Experiment: Anticancer human tumor 188146-221-R-J1-PDC patient-derived colon adenocarcinoma cell line growth inhibition [POLQ]
Conditions: for IC50: curve of first compound; for viability, T/C: stronger effect = lower value
Procedure, shortened: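 Patient-derived tumour cells were co-cultured with HUVEC and mesenchymal stem cells as multicellular spheroids at 37 °C. They were treated with POLQ inhibitors (novobiocin, ART-558, RP6685) alone or combined with other agents. Top concentrations were at or near clinical Cmax (otherwise 10 microM; SN-38 at 1 microM), decreasing in half-log steps.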
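Further: spheroids exposed to compounds for seven days.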
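Wherever viability, T/C is given: 100% = DMSO vehicle control viability.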

## Cn1ncnc1[C@H]1c2n[nH]c(=O)c3cc(F)cc(c23)N[C@@H]1c1ccc(F)cc1 + COC1C(OC(N)=O)C(O)C(Oc2ccc3c(O)c(NC(=O)c4ccc(O)c(CC=C(C)C)c4)c(=O)oc3c2C)OC1(C)C
Second compound 0.0316 µM
  IC50: > 100 nM
Second compound 0.1 µM
  IC50: > 100 nM
Second compound 0.316 µM
  IC50: > 100 nM
Second compound 1 µM
  IC50: > 100 nM
Second compound 3.16 µM
  IC50: > 100 nM
Second compound 10 µM
  IC50: > 100 nM
Second compound 0.0316 µM, first compound 0.000316 µM
  viability, T/C: 109%
Second compound 0.0316 µM, first compound 0.001 µM
  viability, T/C: 93.7%
Second compound 0.0316 µM, first compound 0.00316 µM
  viability, T/C: 104%
Second compound 0.0316 µM, first compound 0.01 µM
  viability, T/C: 113%
Second compound 0.0316 µM, first compound 0.0316 µM
  viability, T/C: 97.9%
Second compound 0.0316 µM, first compound 0.1 µM
  viability, T/C: 88.4%
Second compound 0.1 µM, first compound 0.000316 µM
  viability, T/C: 108%
Second compound 0.1 µM, first compound 0.001 µM
  viability, T/C: 108%
Second compound 0.1 µM, first compound 0.00316 µM
  viability, T/C: 108%
Second compound 0.1 µM, first compound 0.01 µM
  viability, T/C: 101%
Second compound 0.1 µM, first compound 0.0316 µM
  viability, T/C: 99.5%
Second compound 0.1 µM, first compound 0.1 µM
  viability, T/C: 86.8%
Second compound 0.316 µM, first compound 0.000316 µM
  viability, T/C: 114%
Second compound 0.316 µM, first compound 0.001 µM
  viability, T/C: 102%
Second compound 0.316 µM, first compound 0.00316 µM
  viability, T/C: 98.2%
Second compound 0.316 µM, first compound 0.01 µM
  viability, T/C: 93.8%
Second compound 0.316 µM, first compound 0.0316 µM
  viability, T/C: 98.8%
Second compound 0.316 µM, first compound 0.1 µM
  viability, T/C: 88.8%
Second compound 1 µM, first compound 0.000316 µM
  viability, T/C: 107%
Second compound 1 µM, first compound 0.001 µM
  viability, T/C: 113%
Second compound 1 µM, first compound 0.00316 µM
  viability, T/C: 108%
Second compound 1 µM, first compound 0.01 µM
  viability, T/C: 107%
Second compound 1 µM, first compound 0.0316 µM
  viability, T/C: 98.2%
Second compound 1 µM, first compound 0.1 µM
  viability, T/C: 101%
Second compound 3.16 µM, first compound 0.000316 µM
  viability, T/C: 108%
Second compound 3.16 µM, first compound 0.001 µM
  viability, T/C: 103%
Second compound 3.16 µM, first compound 0.00316 µM
  viability, T/C: 106%
Second compound 3.16 µM, first compound 0.01 µM
  viability, T/C: 97.5%
Second compound 3.16 µM, first compound 0.0316 µM
  viability, T/C: 110%
Second compound 3.16 µM, first compound 0.1 µM
  viability, T/C: 102%
Second compound 10 µM, first compound 0.000316 µM
  viability, T/C: 114%
Second compound 10 µM, first compound 0.001 µM
  viability, T/C: 104%
Second compound 10 µM, first compound 0.00316 µM
  viability, T/C: 111%
Second compound 10 µM, first compound 0.01 µM
  viability, T/C: 104%
Second compound 10 µM, first compound 0.0316 µM
  viability, T/C: 103%
Second compound 10 µM, first compound 0.1 µM
  viability, T/C: 105%
